# US9695155B2, “Herbicidal substituted pyrimidinyloxy benzene compounds” (E. I. DU PONT DE NEMOURS AND COMPANY, priority 2013, dated 2017)
# Legend:
# large (Lg) crabgrass [1] = experiment: Test A preemergence; format: in vivo, Digitaria sanguinalis; details: for Crabgrass, Large plant response rating: 500 g ai/ha
# Summary of the method: (§1)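 Injury scores run from 0, no effect, to 100, complete control, judged by eye against untreated plants roughly 10 days after treatment. Chemicals carried a surfactant in a non-phytotoxic solvent and went onto loam–sand soil preemergence or onto one- to two-leaf seedlings postemergence.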
# velvetleaf [2] = experiment: Test A preemergence; format: in vivo, Abutilon theophrasti; details: for Velvetleaf plant response rating: 500 g ai/ha
# Summary of the method: as §1
# wheat [3] = experiment: Test A postemergence; format: in vivo, Triticum aestivum; details: 0 to 100 scale where 0 is no effect and 100 is complete control
# Summary of the method: as §1
# morningglory [4] = experiment: Test A postemergence; format: in vivo, Ipomoea spp.; details: 0 to 100 scale where 0 is no effect and 100 is complete control
# Summary of the method: as §1
# barnyardgrass [5] = experiment: Test A postemergence; format: in vivo, Echinochloa crus-galli
# Summary of the method: as §1
# wheat [6] = experiment: Test A preemergence; format: in vivo, Triticum aestivum; details: for Wheat plant response rating: 500 g ai/ha
# Summary of the method: as §1
# giant foxtail [7] = experiment: Test A postemergence; format: in vivo, Setaria faberii; details: 0 to 100 scale where 0 is no effect and 100 is complete control
# Summary of the method: as §1
# giant foxtail [8] = experiment: Test A preemergence; format: in vivo, Setaria faberii; details: for Foxtail, Giant plant response rating: 500 g ai/ha
# Summary of the method: as §1
# rice = experiment: Test B flooded paddy test; format: in vivo, Oryza sativa; details: Flood, 250 g ai/ha; 0 to 100 scale where 0 is no effect and 100 is complete control
# Summary of the method: (§2)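 Plants at 2-leaf stage; pots flooded to 3 cm above soil and compound applied directly into paddy water, depth held throughout. After 13 to 15 days in greenhouse, visual rating versus controls on 0 (no effect) to 100 (complete control) scale.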
# pigweed [9] = experiment: Test A postemergence; format: in vivo, Amaranthus retroflexus; details: 0 to 100 scale where 0 is no effect and 100 is complete control
# Summary of the method: as §1
# Heteranthera limosa = experiment: Test B flooded paddy test; format: in vivo; details: Flood, 250 g ai/ha; 0 to 100 scale where 0 is no effect and 100 is complete control
# Summary of the method: as §2
# barnyardgrass [10] = experiment: Test A preemergence; format: in vivo, Echinochloa crus-galli; details: for Barnyardgrass plant response rating: 500 g ai/ha
# Summary of the method: as §1
# morningglory [11] = experiment: Test A preemergence; format: in vivo, Ipomoea spp.; details: for Morningglory plant response rating: 500 g ai/ha
# Summary of the method: as §1
# pigweed [12] = experiment: Test A preemergence; format: in vivo, Amaranthus retroflexus; details: for Pigweed plant response rating: 500 g ai/ha
# Summary of the method: as §1
# barnyardgrass [13] = experiment: Test B flooded paddy test; format: in vivo, Echinochloa crus-galli; details: Flood, 250 g ai/ha; 0 to 100 scale where 0 is no effect and 100 is complete control
# Summary of the method: as §2
# velvetleaf [14] = experiment: Test A postemergence; format: in vivo, Abutilon theophrasti; details: 0 to 100 scale where 0 is no effect and 100 is complete control
# Summary of the method: as §1
# large (Lg) crabgrass [15] = experiment: Test A postemergence; format: in vivo, Digitaria sanguinalis
# Summary of the method: as §1
# corn [16] = experiment: Test A preemergence; format: in vivo, Zea mays; details: for Corn plant response rating: 500 g ai/ha
# Summary of the method: as §1
# sedge, umbrella = experiment: Test B flooded paddy test; format: in vivo, Cyperus difformis; details: Flood, 250 g ai/ha; 0 to 100 scale where 0 is no effect and 100 is complete control
# Summary of the method: as §2
# corn [17] = experiment: Test A postemergence; format: in vivo, Zea mays
# Summary of the method: as §1
# [18] = 125 g ai/ha, 0 to 100 scale where 0 is no effect and 100 is complete control
# [19] = 0 to 100 scale, 0 no effect, 100 complete control, approx. 10 days
# [20] = 500 g ai/ha, 0 to 100 scale, 0 no effect, 100 complete control
# [21] = 0 to 100 scale where 0 is no effect and 100 is complete control
# [22] = 500 g ai/ha, 0 to 100 scale where 0 is no effect and 100 is complete control
smiles,measurement,setting,value
N#Cc1cccc(Oc2ncc(I)cn2)c1-n1cc(Cl)cn1 [Compound 75],"Plant response rating, Crabgrass, Large",large (Lg) crabgrass [1]; [18],70
same,"Crabgrass, Large plant response rating",large (Lg) crabgrass [1]; [19],100
same,"Plant response rating, Velvetleaf",velvetleaf [2]; [18],40
same,Velvetleaf plant response rating,velvetleaf [2]; [19],80
same,"Plant response rating, Wheat",wheat [3]; 125 g ai/ha,0
same,"Plant response rating, Wheat",wheat [3]; 500 g ai/ha,0
same,"Plant response rating, Morningglory",morningglory [4]; 125 g ai/ha,50
same,"Plant response rating, Morningglory",morningglory [4]; 500 g ai/ha,60
same,"Plant response rating, Barnyardgrass",barnyardgrass [5]; [18],30
same,"Plant response rating, Barnyardgrass",barnyardgrass [5]; [20],70
same,"Plant response rating, Wheat",wheat [6]; [18],0
same,Wheat plant response rating,wheat [6]; [19],0
same,"Plant response rating, Foxtail, Giant",giant foxtail [7]; 125 g ai/ha,10
same,"Plant response rating, Foxtail, Giant",giant foxtail [7]; 500 g ai/ha,80
same,"Plant response rating, Foxtail, Giant",giant foxtail [8]; [18],40
same,"Foxtail, Giant plant response rating",giant foxtail [8]; [19],100
same,"Plant response rating, Rice",rice,0
same,"Plant response rating, Pigweed",pigweed [9]; 125 g ai/ha,70
same,"Plant response rating, Pigweed",pigweed [9]; 500 g ai/ha,100
same,"Plant response rating, Ducksalad",Heteranthera limosa,60
same,"Plant response rating, Barnyardgrass",barnyardgrass [10]; [18],20
same,Barnyardgrass plant response rating,barnyardgrass [10]; [19],70
same,"Plant response rating, Morningglory",morningglory [11]; [18],20
same,Morningglory plant response rating,morningglory [11]; [19],30
same,"Plant response rating, Pigweed",pigweed [12]; [18],100
same,Pigweed plant response rating,pigweed [12]; [19],100
same,"Plant response rating, Barnyardgrass",barnyardgrass [13],0
same,"Plant response rating, Velvetleaf",velvetleaf [14]; 125 g ai/ha,40
same,"Plant response rating, Velvetleaf",velvetleaf [14]; 500 g ai/ha,70
same,"Plant response rating, Crabgrass, Large",large (Lg) crabgrass [15]; [18],20
same,"Plant response rating, Crabgrass, Large",large (Lg) crabgrass [15]; [20],70
same,"Plant response rating, Corn",corn [16]; [18],0
same,Corn plant response rating,corn [16]; [19],10
same,"Plant response rating, Sedge, Umbrella","sedge, umbrella",50
same,"Plant response rating, Corn",corn [17]; [18],0
same,"Plant response rating, Corn",corn [17]; [20],40
O=Cc1cccc(Oc2ncc(Br)cn2)c1-n1cc(I)cn1 [Compound 183],"Crabgrass, Large plant response rating (0 to 100 scale)",large (Lg) crabgrass [1]; 125 g ai/ha,0
same,"Crabgrass, Large plant response rating",large (Lg) crabgrass [1]; [21],0
same,Velvetleaf plant response rating (0 to 100 scale),velvetleaf [2]; 125 g ai/ha,0
same,Velvetleaf plant response rating,velvetleaf [2]; [21],0
same,Wheat plant response rating,wheat [3]; 125 g ai/ha,0
same,"Plant response rating, Wheat",wheat [3]; 500 g ai/ha,0
same,Morningglory plant response rating,morningglory [4]; 125 g ai/ha,0
same,"Plant response rating, Morningglory",morningglory [4]; 500 g ai/ha,0
same,Barnyardgrass plant response rating,barnyardgrass [5]; [18],0
same,"Plant response rating, Barnyardgrass",barnyardgrass [5]; [22],0
same,Wheat plant response rating (0 to 100 scale),wheat [6]; 125 g ai/ha,0
same,Wheat plant response rating,wheat [6]; [21],0
same,"Foxtail, Giant plant response rating",giant foxtail [7]; 125 g ai/ha,0
same,"Plant response rating, Foxtail, Giant",giant foxtail [7]; 500 g ai/ha,0
same,"Foxtail, Giant plant response rating (0 to 100 scale)",giant foxtail [8]; 125 g ai/ha,0
same,"Foxtail, Giant plant response rating",giant foxtail [8]; [21],0
same,"Plant response rating, Rice",rice,0
same,Pigweed plant response rating,pigweed [9]; 125 g ai/ha,20
same,"Plant response rating, Pigweed",pigweed [9]; 500 g ai/ha,50
same,"Plant response rating, Ducksalad",Heteranthera limosa,0
same,"Barnyardgrass plant response rating (0 to 100 scale, 0 is no effect, 100 is complete control)",barnyardgrass [10]; 125 g ai/ha,0
same,Barnyardgrass plant response rating,barnyardgrass [10]; [21],0
same,Morningglory plant response rating (0 to 100 scale),morningglory [11]; 125 g ai/ha,0
same,Morningglory plant response rating,morningglory [11]; [21],0
same,Pigweed plant response rating (0 to 100 scale),pigweed [12]; 125 g ai/ha,20
same,Pigweed plant response rating,pigweed [12]; [21],90
same,"Plant response rating, Barnyardgrass",barnyardgrass [13],0
same,Velvetleaf plant response rating,velvetleaf [14]; 125 g ai/ha,20
same,"Plant response rating, Velvetleaf",velvetleaf [14]; 500 g ai/ha,30
same,"Crabgrass, Large plant response rating",large (Lg) crabgrass [15]; [18],0
same,"Plant response rating, Crabgrass, Large",large (Lg) crabgrass [15]; [22],0
same,Corn plant response rating (0 to 100 scale),corn [16]; 125 g ai/ha,0
same,Corn plant response rating,corn [16]; [21],0
same,"Plant response rating, Sedge, Umbrella","sedge, umbrella",0
same,Corn plant response rating,corn [17]; [18],0
same,"Plant response rating, Corn",corn [17]; [22],0
